Test results reported in patent publication US12037344B2, “NLRP3 modulators” (INNATE TUMOR IMMUNITY, INC., priority 2018, dated 2024).

Columns and labels:
THP-1 cells = test: Measurement of IL-1β production, hTRF protocol (second alternative procedure), THP-1 cells; format: cell-based, human; settings: Homo sapiens, THP-1, IL-1β production, human cells; read-out: NLRP3 hILIB EC50
Method in brief: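 Compounds, dilution series starting at a final 10 μM, were incubated 2 hours at 37° C with PMA-differentiated THP-1 cells (50 ng/ml overnight; 50,000 cells/well, 2% FBS RPMI). Released IL-1β quantified in supernatant by hTRF kit with 1:40 antibody dilution, 4° C overnight, 665/615 nm ratio.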

TLR7 = biological target: T1, TLR7 (Homo sapiens, UniProt Q9NYK1); test: In vitro human TLR7 binding reporter assay (HEK-Blue, NF-kB/AP1-inducible SEAP); format: cell-based; settings: activity range, read-out: TLR7 Agonist EC50
T1 construct: human HEK-Blue cells co-expressing a TLR7 or TLR8 gene
T1 sequence (Q9NYK1 27-1049): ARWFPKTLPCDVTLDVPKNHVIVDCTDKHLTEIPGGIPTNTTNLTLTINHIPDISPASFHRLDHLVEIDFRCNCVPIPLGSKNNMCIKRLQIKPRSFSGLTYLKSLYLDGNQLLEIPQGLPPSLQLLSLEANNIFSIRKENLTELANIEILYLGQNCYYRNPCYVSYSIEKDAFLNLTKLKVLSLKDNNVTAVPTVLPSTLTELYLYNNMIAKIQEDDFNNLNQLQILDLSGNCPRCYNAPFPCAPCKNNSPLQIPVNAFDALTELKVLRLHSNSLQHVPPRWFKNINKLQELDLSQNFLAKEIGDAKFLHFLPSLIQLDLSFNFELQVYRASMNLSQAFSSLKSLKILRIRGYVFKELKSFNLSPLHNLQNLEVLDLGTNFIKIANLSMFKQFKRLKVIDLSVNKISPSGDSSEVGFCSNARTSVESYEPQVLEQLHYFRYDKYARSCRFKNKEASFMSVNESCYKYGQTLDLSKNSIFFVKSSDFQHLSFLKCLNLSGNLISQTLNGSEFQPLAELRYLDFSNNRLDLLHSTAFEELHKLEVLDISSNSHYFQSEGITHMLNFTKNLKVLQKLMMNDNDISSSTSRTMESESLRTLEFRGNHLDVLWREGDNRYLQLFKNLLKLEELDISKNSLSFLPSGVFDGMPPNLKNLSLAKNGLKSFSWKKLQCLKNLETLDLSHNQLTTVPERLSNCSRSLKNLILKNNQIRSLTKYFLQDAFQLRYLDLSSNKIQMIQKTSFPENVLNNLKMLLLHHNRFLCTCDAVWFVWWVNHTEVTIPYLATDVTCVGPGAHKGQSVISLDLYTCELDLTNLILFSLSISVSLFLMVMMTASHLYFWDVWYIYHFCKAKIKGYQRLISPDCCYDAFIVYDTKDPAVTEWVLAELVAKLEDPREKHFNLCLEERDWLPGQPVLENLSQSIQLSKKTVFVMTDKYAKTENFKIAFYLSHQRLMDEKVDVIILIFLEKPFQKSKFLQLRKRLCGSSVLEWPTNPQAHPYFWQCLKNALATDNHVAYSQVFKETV
Method in brief: (§1)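 Cells are seeded and grown for 24 h. Compounds or DMSO are then added and incubated 18 h at 37 °C. Quanti-Blue is added, and SEAP is read after thirty minutes. EC50 values are normalized, with RLU from 50 μM reference standard setting 100% Ymax.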

TLR8 = biological target: T2, TLR8 (Homo sapiens, UniProt Q9NR97); test: In vitro human TLR8 binding reporter assay (HEK-Blue, NF-kB/AP1-inducible SEAP); format: cell-based; settings: activity range, read-out: TLR8 Agonist EC50
T2 construct: human HEK-Blue cells co-expressing a TLR7 or TLR8 gene
T2 sequence (Q9NR97 27-1041): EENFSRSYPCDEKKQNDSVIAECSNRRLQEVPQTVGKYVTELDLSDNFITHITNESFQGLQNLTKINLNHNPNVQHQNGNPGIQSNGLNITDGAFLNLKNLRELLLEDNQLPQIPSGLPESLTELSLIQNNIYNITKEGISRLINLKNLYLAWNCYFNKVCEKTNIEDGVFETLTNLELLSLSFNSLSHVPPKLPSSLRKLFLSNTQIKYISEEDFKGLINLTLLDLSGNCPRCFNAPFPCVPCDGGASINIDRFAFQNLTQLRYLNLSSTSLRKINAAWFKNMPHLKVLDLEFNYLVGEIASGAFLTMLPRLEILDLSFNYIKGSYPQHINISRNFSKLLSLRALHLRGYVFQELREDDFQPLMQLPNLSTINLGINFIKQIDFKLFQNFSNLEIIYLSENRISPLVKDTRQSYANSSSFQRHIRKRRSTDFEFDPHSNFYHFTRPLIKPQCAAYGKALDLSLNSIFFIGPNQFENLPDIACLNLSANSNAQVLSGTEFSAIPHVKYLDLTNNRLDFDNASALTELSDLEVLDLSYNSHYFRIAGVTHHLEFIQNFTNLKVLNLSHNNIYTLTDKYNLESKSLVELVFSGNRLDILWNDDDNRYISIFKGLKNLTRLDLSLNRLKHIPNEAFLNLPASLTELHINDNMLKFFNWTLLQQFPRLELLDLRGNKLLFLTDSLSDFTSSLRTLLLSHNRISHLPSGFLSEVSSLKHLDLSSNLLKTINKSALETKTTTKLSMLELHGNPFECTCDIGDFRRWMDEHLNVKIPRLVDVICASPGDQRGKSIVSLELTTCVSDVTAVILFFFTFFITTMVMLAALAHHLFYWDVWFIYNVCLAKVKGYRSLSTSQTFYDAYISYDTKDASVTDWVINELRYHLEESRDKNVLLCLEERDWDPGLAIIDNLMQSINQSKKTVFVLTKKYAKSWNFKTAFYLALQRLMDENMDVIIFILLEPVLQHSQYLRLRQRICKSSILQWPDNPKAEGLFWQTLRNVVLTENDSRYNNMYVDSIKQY
Method in brief: as §1

CC(C)(Cn1cc2c(N)nc3cc(-c4ccn[nH]4)ccc3c2n1)C(=O)N1CC(O)C1 [Example 597]
EC50 (THP-1 cells): 8.7 µM
EC50 (TLR7): > 100 µM
EC50 (TLR8): > 100 µM

CC(C)(Cn1cc2c(N)nc3cc(-c4ccn[nH]4)ccc3c2n1)C(=O)NC1CCC1 [Example 598]
EC50 (THP-1 cells): 1.98 µM
EC50 (TLR7): > 100 µM
EC50 (TLR8): > 100 µM

CC(C)(Cn1cc2c(N)nc3cc(-c4ccn[nH]4)ccc3c2n1)C(=O)N1CC(F)(F)C1 [Example 599]
EC50 (THP-1 cells): 2.18 µM
EC50 (TLR7): > 100 µM
EC50 (TLR8): > 100 µM

CN(C)C(=O)C1(Cn2cc3c(N)nc4cc(-c5ccn[nH]5)ccc4c3n2)CC1 [Example 600]
EC50 (THP-1 cells): 3.99 µM
EC50 (TLR7): > 100 µM
EC50 (TLR8): > 100 µM

CC(C)(Cn1cc2c(N)nc3cc(-c4ccn[nH]4)ccc3c2n1)C(=O)NCc1cccnc1 [Example 601]
EC50 (THP-1 cells): 32.4 µM
EC50 (TLR7): > 100 µM
EC50 (TLR8): > 100 µM

CC(C)(Cn1cc2c(N)nc3cc(-c4ccn[nH]4)ccc3c2n1)C(=O)NCC1CCOCC1 [Example 602]
EC50 (THP-1 cells): 21.2 µM
EC50 (TLR7): > 100 µM
EC50 (TLR8): > 100 µM

CC(C)NC(=O)C(C)(C)Cn1cc2c(N)nc3cc(-c4ccn[nH]4)ccc3c2n1 [Example 603]
EC50 (THP-1 cells): 3.05 µM
EC50 (TLR7): > 100 µM
EC50 (TLR8): > 100 µM

CC(C)(Cn1cc2c(N)nc3cc(-c4ccn[nH]4)ccc3c2n1)C(N)=O [Example 604]
EC50 (THP-1 cells): 0.85 µM
EC50 (TLR7): > 100 µM
EC50 (TLR8): > 100 µM

Nc1nc2cc(-c3ccn[nH]3)ccc2c2nn(CC3(C(=O)NCc4ccccn4)CC3)cc12 [Example 605]
EC50 (THP-1 cells): 22.4 µM
EC50 (TLR7): > 100 µM
EC50 (TLR8): > 100 µM

Nc1nc2cc(-c3ccn[nH]3)ccc2c2nn(CC3(C(=O)NCC(F)F)CC3)cc12 [Example 606]
EC50 (THP-1 cells): 2.46 µM
EC50 (TLR7): > 100 µM
EC50 (TLR8): > 100 µM

Nc1nc2cc(-c3ccn[nH]3)ccc2c2nn(CC3(C(=O)N4CCCC4)CC3)cc12 [Example 607]
EC50 (THP-1 cells): 13.4 µM
EC50 (TLR7): > 100 µM
EC50 (TLR8): > 100 µM

CNC(=O)C1(Cn2cc3c(N)nc4cc(-c5ccn[nH]5)ccc4c3n2)CC1 [Example 608]
EC50 (THP-1 cells): 0.7 µM
EC50 (TLR7): > 100 µM
EC50 (TLR8): > 100 µM

CC(C)(Cn1cc2c(N)nc3cc(-c4ccn[nH]4)ccc3c2n1)C(=O)NCCS(C)(=O)=O [Example 609]
EC50 (THP-1 cells): 18.1 µM
EC50 (TLR7): > 100 µM
EC50 (TLR8): > 100 µM

COC1CCN(C(=O)C(C)(C)Cn2cc3c(N)nc4cc(-c5ccn[nH]5)ccc4c3n2)CC1 [Example 610]
EC50 (THP-1 cells): 4.41 µM
EC50 (TLR7): > 100 µM
EC50 (TLR8): > 100 µM

CC(C)(Cn1cc2c(N)nc3cc(-c4ccn[nH]4)ccc3c2n1)C(=O)NCc1ccccn1 [Example 611]
EC50 (THP-1 cells): 9.94 µM
EC50 (TLR7): > 100 µM
EC50 (TLR8): > 100 µM

CNC(=O)C(C)Cn1cc2c(N)nc3cc(-c4cc[nH]n4)ccc3c2n1 (stereo not drawn) [Example 612]
EC50 (THP-1 cells): 0.43 µM
EC50 (TLR7): > 100 µM
EC50 (TLR8): > 100 µM

CC(Cn1cc2c(N)nc3cc(-c4cc[nH]n4)ccc3c2n1)C(=O)N1CC(O)C1 (stereo not drawn) [Example 613]
EC50 (THP-1 cells): 23.4 µM
EC50 (TLR7): > 100 µM
EC50 (TLR8): > 100 µM

CC(C)NC(=O)C(C)Cn1cc2c(N)nc3cc(-c4cc[nH]n4)ccc3c2n1 (stereo not drawn) [Example 614]
EC50 (THP-1 cells): 11.6 µM
EC50 (TLR7): > 100 µM
EC50 (TLR8): > 100 µM
